Laboratory results from patent US20240108006A1, “PESTICIDALLY ACTIVE HETEROAROMATIC COMPOUNDS” (SYNGENTA CROP PROTECTION AG, priority 2021, published 2024).
Read-outs that look alike come from different tables or passages of the source.

Columns and labels:
Assay type in all cases: in vivo
[1] = test system: Chilo suppressalis; assay: Example B1: Chilo suppressalis (striped rice stemborer), artificial diet, L2 larvae; settings: 144 h, application rate of 200 ppm, 6 days after infestation, read-out: control in at least one of the three categories (mortality, anti-feedant effect, or growth inhibition)
Outline: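 L2 larvae (6-8 per well) were placed on dried artificial diet that had been dosed with aqueous dilutions of 10,000 ppm DMSO stock solutions. After 6 days, control was credited if mortality, antifeedant effect or growth inhibition was higher than in untreated samples.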

[2] = test system: Myzus persicae; assay: Example B7: Myzus persicae (green peach aphid), intrinsic activity, sucrose solution 24-well; settings: 120 h, read-out: control (mortality)
Source text: Example B7: Myzus persicae (Green Peach Aphid). Intrinsic Activity
Test compounds prepared from 10,000 ppm DMSO stock solutions were applied by pipette into 24-well microtiter plates and mixed with sucrose solution. The plates were closed with a stretched Parafilm. A plastic stencil with 24 holes was placed onto the plate and infested pea seedlings were placed directly on the Parafilm. The infested plate was closed with a gel blotting paper and another plastic stencil and then turned upside down. The samples were assessed for mortality 5 days after infestation.
The following compounds gave an effect of at least 80% control at an application rate of 12.5 ppm: […]

[3] = test system: Plutella xylostella; assay: Example B8: Plutella xylostella (diamond back moth), artificial diet 24-well, eggs; settings: 192 h, application rate of 200 ppm, 8 days after infestation, read-out: effect in at least one of the two categories (mortality or growth inhibition)
Outline: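 Plutella eggs placed onto dried, compound-treated artificial diet, the aqueous test solutions diluted from 10,000 ppm DMSO stocks. Eight days post-infestation, larvae rated for mortality and growth inhibition relative to untreated controls.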

[4] = test system: Spodoptera littoralis; assay: Example B9: Spodoptera littoralis (Egyptian cotton leaf worm), cotton leaf discs, L1 larvae; settings: foliar, 72 h, application rate of 200 ppm, 3 days after infestation, read-out: control in at least one of the three categories (mortality, anti-feedant effect, or growth inhibition)
Experimental: Example B9: Spodoptera littoralis (Egyptian Cotton Leaf Worm)
Cotton leaf discs were placed onto agar in 24-well microtiter plates and sprayed with aqueous test solutions prepared from 10,000 ppm DMSO stock solutions. After drying the leaf discs were infested with five L1 larvae. The samples were assessed for mortality, anti-feeding effect, and growth inhibition in comparison to untreated samples 3 days after infestation. Control of Spodoptera littoralis by a test sample is given when at least one of the categories mortality, anti-feedant effect, and growth inhibition is higher than the untreated sample.

[5] = application rate of 12.5 ppm, 5 days after infestation

Row | SMILES | percent control (mortality, anti-feedant effect or growth inhibition) at 200 ppm [1] [%] | mortality at 12.5 ppm [2, 5] [%] | percent effect (mortality or growth inhibition) at 200 ppm [3] [%] | percent control (mortality, anti-feedant effect or growth inhibition) at 200 ppm [4] [%] | mortality at 12.5 ppm [2] [%]
1 | C[C@H](NC(=O)Nc1ccc(C#N)cc1Br)c1ncnn1-c1ncccn1 [Example P30, 1-(2-bromo-4-cyano-phenyl)-3-[(1S)-1-(2-pyrimidin-2-yl-1,2,4-triazol-3-yl)ethyl]urea] | ≥ 80 | ≥ 80 |  |  | 
2 | C[C@H](NC(=O)Nc1cc2c(cc1Br)OC(F)(F)O2)c1ncnn1-c1ncccn1 [Example P79, 1-(6-bromo-2,2-difluoro-1,3-benzodioxol-5-yl)-3-[(1S)-1-(2-pyrimidin-2-yl-1,2,4-triazol-3-yl)ethyl]urea] | ≥ 80 | ≥ 80 | ≥ 80 | ≥ 80 | 
3 | C[C@H](NC(=O)Nc1ccc(F)cc1S(C)(=O)=O)c1ncnn1-c1ncccn1 [Example P99, 1-(4-fluoro-2-methylsulfonyl-phenyl)-3-[(1S)-1-(2-pyrimidin-2-yl-1,2,4-triazol-3-yl)ethyl]urea] |  | ≥ 80 |  |  | 
4 | C[C@H](NC(=O)Nc1ccc(C(F)(F)F)cc1)c1ncnn1-c1ncccn1 [Example P122, 1-[(1S)-1-(2-pyrimidin-2-yl-1,2,4-triazol-3-yl)ethyl]-3-[4-(trifluoromethyl)phenyl]urea] |  | ≥ 80 |  |  | 
5 | C[C@H](NC(=O)Nc1cc(C(F)(F)F)cnc1Cl)c1ncnn1-c1ncccn1 [Example P127, 1-[2-chloro-5-(trifluoromethyl)-3-pyridyl]-3-[(1S)-1-(2-pyrimidin-2-yl-1,2,4-triazol-3-yl)ethyl]urea] | ≥ 80 | ≥ 80 | ≥ 80 | ≥ 80 | 
6 | C[C@H](NC(=O)Nc1ccc(Br)cc1Br)c1ncnn1-c1ncccn1 [Example P130, 1-(2,4-dibromophenyl)-3-[(1S)-1-(2-pyrimidin-2-yl-1,2,4-triazol-3-yl)ethyl]urea] | ≥ 80 | ≥ 80 | ≥ 80 | ≥ 80 | 
7 | C[C@H](NC(=O)Nc1cc(Oc2ncccn2)c(Cl)cc1Cl)c1ncnn1-c1ncccn1 [Example P138, 1-(2,4-dichloro-5-pyrimidin-2-yloxy-phenyl)-3-[(1S)-1-(2-pyrimidin-2-yl-1,2,4-triazol-3-yl)ethyl]urea] | ≥ 80 | ≥ 80 | ≥ 80 |  | 
8 | C[C@H](NC(=O)Nc1cc(Cl)c(C#N)cc1Cl)c1ncnn1-c1ncccn1 [Example P179, 1-(2,5-dichloro-4-cyano-phenyl)-3-[(1S)-1-(2-pyrimidin-2-yl-1,2,4-triazol-3-yl)ethyl]urea] |  |  |  |  | ≥ 80
9 | COC(=O)c1cc(NC(=O)N[C@@H](C)c2ncnn2-c2ncccn2)c(C(F)(F)F)cc1Cl [Example P210, methyl 2-chloro-5-[[(1S)-1-(2-pyrimidin-2-yl-1,2,4-triazol-3-yl)ethyl]carbamoylamino]-4-(trifluoromethyl)benzoate] | ≥ 80 | ≥ 80 | ≥ 80 |  | 
10 | CC(C)Oc1cc(NC(=O)N[C@@H](C)c2ncnn2-c2ncccn2)c(F)cc1Br [Example P221, 1-(4-bromo-2-fluoro-5-isopropoxy-phenyl)-3-[(1S)-1-(2-pyrimidin-2-yl-1,2,4-triazol-3-yl)ethyl]urea] | ≥ 80 | ≥ 80 | ≥ 80 |  | 
11 | CCCOc1cc(NC(=O)N[C@@H](C)c2ncnn2-c2ncccn2)c(F)cc1Br [Example P231, 1-(4-bromo-2-fluoro-5-propoxy-phenyl)-3-[(1S)-1-(2-pyrimidin-2-yl-1,2,4-triazol-3-yl)ethyl]urea] |  | ≥ 80 | ≥ 80 |  | 
12 | CC(NC(=O)Nc1ccc(Br)cc1OC(F)F)c1nccnc1-c1ncccn1 (stereo not shown) [Example P241, 1-[4-bromo-2-(difluoromethoxy)phenyl]-3-[1-(3-pyrimidin-2-ylpyrazin-2-yl)ethyl]urea] | ≥ 80 | ≥ 80 | ≥ 80 | ≥ 80 | 
13 | C[C@H](NC(=O)Nc1cc(Oc2ccc(C#N)cn2)c(Cl)cc1Cl)c1ncnn1-c1ncccn1 [Example P274, 1-[2,4-dichloro-5-[(5-cyano-2-pyridyl)oxy]phenyl]-3-[(1S)-1-(2-pyrimidin-2-yl-1,2,4-triazol-3-yl)ethyl]urea] | ≥ 80 | ≥ 80 | ≥ 80 |  | 
14 | COc1cc(Cl)c(NC(=O)N[C@@H](C)c2ncnn2-c2ncccn2)cc1OC [Example P304, 1-(2-chloro-4,5-dimethoxy-phenyl)-3-[(1S)-1-(2-pyrimidin-2-yl-1,2,4-triazol-3-yl)ethyl]urea] |  | ≥ 80 | ≥ 80 |  | 
15 | COC(=O)c1cc(NC(=O)N[C@@H](C)c2ncnn2-c2ncccn2)c(C)cc1C [Example P315, methyl 2,4-dimethyl-5-[[(1S)-1-(2-pyrimidin-2-yl-1,2,4-triazol-3-yl)ethyl]carbamoylamino]benzoate] |  | ≥ 80 |  |  | 
16 | C[C@H](NC(=O)Nc1cc(F)c(C(F)(F)F)cc1F)c1ncnn1-c1ncccn1 [Example P332, 1-[2,5-difluoro-4-(trifluoromethyl)phenyl]-3-[(1S)-1-(2-pyrimidin-2-yl-1,2,4-triazol-3-yl)ethyl]urea] | ≥ 80 | ≥ 80 |  | ≥ 80 | 
17 | COc1cc(NC(=O)N[C@@H](C)c2ncnn2-c2ncccn2)c(C2CC2)cc1Cl [Example P355, 1-(4-chloro-2-cyclopropyl-5-methoxy-phenyl)-3-[(1S)-1-(2-pyrimidin-2-yl-1,2,4-triazol-3-yl)ethyl]urea] | ≥ 80 | ≥ 80 |  |  | 
18 | CSc1cc(Cl)c(C(F)(F)F)cc1NC(=O)N[C@@H](C)c1ncnn1-c1ncccn1 [Example P360, 1-[4-chloro-2-methylsulfanyl-5-(trifluoromethyl)phenyl]-3-[(1S)-1-(2-pyrimidin-2-yl-1,2,4-triazol-3-yl)ethyl]urea] | ≥ 80 | ≥ 80 |  | ≥ 80 | 
19 | C[C@H](NC(=O)Nc1cc(OC(F)(F)C(F)F)c(Cl)cc1Cl)c1ncnn1-c1ncc(C(=O)N(C)C)s1 [Example P396, 2-[5-[(1S)-1-[[2,4-dichloro-5-(1,1,2,2-tetrafluoroethoxy)phenyl]carbamoyl-amino]ethyl]-1,2,4-triazol-1-yl]-N,N-dimethyl-thiazole-5-carboxamide] | ≥ 80 |  | ≥ 80 | ≥ 80 | 
